In patent publication US12357695B2, “Peptides and nanoparticles for intracellular delivery of molecules” (AADIGEN, LLC, priority 2019, dated 2025):
Square brackets hold non-standard residues; d marks the D form. Ends that are not written are not given here. Stearyl = stearyl group covalently linked to the N-terminus; βAla = NCCC(=O)O

Assays:
[1] = DLS particle size and level of aggregation of ADGN-peptide/mRNA complexes; format: physicochemical; settings: retro inverso modification vs parent peptide
Protocol: (§1) Complex formation with mRNA. The following protocols were used for the transfection of 2-5 106 Cells or Cells at confluency of about 70-80% cultured in 24 well plates. ADGN peptide/mRNA particles were prepared at a 20:1 molar ratio of ADGN-Peptide/mRNA. using (0.25 μg) mRNA. Luc mRNA (0.25 μg) was diluted in 20 μl of sterile water (GIBCO) at room temperature. 5 μl Final Peptide Solution was added to obtain a total volume of 20 μl. The volume was adjusted to 50 μl with sterile water and was mixed gently with vortex 1 min low speed and incubated 30 min at room temperature. Then the volume was made up to 100 μl by adding sterile water containing 5% sucrose, and the solution was mixed gently with vortex 1 min low speed and incubate 5 min at 37° C. and then was proceeded to cell transfection.
The ability of the different ADGN-peptides to form stable nanoparticles with mRNA was analyzed. The particle sizes and level of aggregation were measured on DLS NanoZS (Malvern Ltd). The mean size and the polydispersity of the ADGN/mRNA complexes were determined at 25° C. for 3 minute per measurement. In order to remove large particles, ADGN/mRNA complexed were filtered using either PES or PVDF 0.45 μm filters. Data are shown in FIG. 8 and FIG. 9 for a mean of 3 separate experiments.

293T cells = experiment: Cellular delivery of Luciferase mRNA, luciferase expression at 72 hrs; format: cell-based; settings: 0.25 μg Luc mRNA; for reduction of efficiency / luciferase expression after serum treatment: complexes incubated 3 hrs in 25% serum prior transfection; for reduction of efficiency / luciferase expression after heparan sulfate treatment: complexes incubated 3 hrs with heparan sulfate prior transfection; for luciferase expression: absence of serum or heparan sulfate treatment
Protocol: FIGS. 1A-1C show luciferase expression in 293T cells treated with ADGN-peptide/mRNA complexes. 293T cells cultured in 48 well plates were transfected with ADGN-peptide nanoparticles. ADGN-100, ADGN-106, ADGN-100RI, ADGN-106RI, ADGN-100 Stearyl, ADGN-Hydro1, ADGN-Hydro2, ADGN-Hydro3, ADGN-Hydro4, ADGN-Hydro5, ADGN-Hydro6 and ADGN-peptide/ADGN-100PEG 10% nanoparticles containing 0.25 μg mRNA were formed in sterile water, diluted in sterile water containing 5% Sucrose and filtered with 0.45 μm PES filters. ADGN/mRNA complexes were incubated for 3 hrs in the presence of either 25% serum or heparan sulfate prior transfection. Luciferase expression was monitored 72 hours post transfection and results were reported as RLU (luminescence):mg of protein.
as §1
Transfection protocol. Protocol is reported for 24 well plate format. Cells were cultured in Dulbecco's Modified Eagle's Medium (DMEM), supplemented with 2 mM glutamine, 1% antibiotics (streptomycin 10,000 μg/mL, penicillin, 10,000 IU/mL) and 10% (w/v) foetal calf serum (FCS), at 37° C. in a humidified atmosphere containing 5% CO2. 24 well plates seeded with 150,000 cells the day prior to transfection were grown to 50-60% confluence and set up to be at about 70% confluences at the time of transfection. Before transfection, cells were washed twice with DMEM. Cells were then overlaid with 0.1 ml of ADGN-peptide/cargo complex solution containing 0.25 μg mRNA, 0.15 μg plasmid DNA or 10-25 nM siRNA, mixed gently, and incubated for 10 min at 37° C. 0.2 mL of fresh DMEM, were added and cells were incubated for 20 min at 37° C. 1 mL of complete DMEM containing 15% FCS were then added in order to reach a final FCS concentration of 10%, without removing the overlay of ADGN-peptide/cargo complexes. Cells were returned to the incubator (37° C., 5% CO2) and 72 hrs post transfection.
ADGN-peptides were evaluated for cellular delivery of Luciferase mRNA in 293T cells. A single dose of mRNA of 0.25 μg was evaluated. Luc mRNA (0.25 μg) in sterile water (GIBCO) were mixed with ADGN-100, ADGN-100RI, ADGN-106, ADGN-106RI, ADGN-100 Stearyl, ADGN-Hydro1, ADGN-Hydro2, ADGN-Hydro5 and ADGN-Hydro6. ADGN-peptide/mRNA complexes were filtered with 0.45 μm PES filter. In order to evaluate the stability of the ADGN/mRNA complexes in high serum and cell culture conditions, the complexes were incubated for 3 hrs in the presence of either 25% serum or heparan sulfate prior transfection, then 293T cells were transfected and Luciferase expression was monitored at 72 hrs.
ADGN-106 peptides containing YIGSR targeting sequence were evaluated for cellular delivery of Luciferase mRNA in 293T cells. A single dose of mRNA of 0.25 μg was evaluated. Luc mRNA (0.25 μg) in sterile water (GIBCO) were mixed with ADGN-106 and ADGN-106Hydro variant. ADGN-peptide/mRNA complexes were filtered with 0.45 μm PES filter. The ADGN-106/mRNA complexes were incubated for 3 hrs in the presence of 25% serum prior transfection, then 293T cells were transfected and Luciferase expression was monitored at 72 hrs.

[2] = absence of serum or heparan sulfate

Row | Substance | ability of the peptide to form stable complex with mRNA [1] | reduction of efficiency / luciferase expression by modification or linker vs unmodified ADGN peptide (293T cells; [2]) | reduction of efficiency / luciferase expression after serum treatment (293T cells) [%] | reduction of efficiency / luciferase expression after heparan sulfate treatment (293T cells) [%] | potency relative to ADGN-100 (293T cells; [2]) [fold] | luciferase expression (293T cells)
1 | akwllrwlsrwlrwlarwlr ([dA][dK][dW][dL][dL][dR][dW][dL][dS][dR][dW][dL][dR][dW][dL][dA][dR][dW][dL][dR]; also: retro-inverso) [ADGN-106-RI] | did not modify the ability of the peptide to form stable complex with mRNA | did not modify | 26 | 13 |  | 
2 | Stearyl-βA-KWRSALWRWRLWRVRSWSR-NH2 (Stearyl-[βAla]KWRSALWRWRLWRVRSWSR-NH2; not fully specified; printed as Stearyl-βA-KWRSALWRWRLWRVRSWSR-NH2) [ADGN-100 Stearyl] |  | not significantly affected |  |  |  | 
3 | rswsrvrwlrwrwgasrwk ([dR][dS][dW][dS][dR][dV][dR][dW][dL][dR][dW][dR][dW]G[dA][dS][dR][dW][dK]; also: retro-inverso) [ADGN-100-RI] | did not modify the ability of the peptide to form stable complex with mRNA | did not modify | 40 | 16 |  | 
4 | βALWRALWRLWRSLWRLLWKA ([βAla]LWRALWRLWRSLWRLLWKA) [ADGN-106] |  |  |  | 50 | 2 | high level of luciferase expression
5 | βAKWRSAGWRWRLW RVRSWSR (AKWRSAGWRWRLWRVRSWSR; N-terminal beta-alanine; VARIANT 1 beta-A) [ADGN-100] |  |  | 90 | 50 |  | high level of luciferase expression
